This passage reports IC50 results from patent publication US10730887B2, “Compound containing tricyclic heteroaryl group” (Hangzhou Innogate Pharma Co., Ltd., priority 2016, dated 2020).

Broadly, the IC50 is the point on the concentration scale where inhibition reaches its midpoint.

This assay concerns the target T1, FLT3 (Homo sapiens, UniProt P36888).
T1 sequence (P36888 27-993): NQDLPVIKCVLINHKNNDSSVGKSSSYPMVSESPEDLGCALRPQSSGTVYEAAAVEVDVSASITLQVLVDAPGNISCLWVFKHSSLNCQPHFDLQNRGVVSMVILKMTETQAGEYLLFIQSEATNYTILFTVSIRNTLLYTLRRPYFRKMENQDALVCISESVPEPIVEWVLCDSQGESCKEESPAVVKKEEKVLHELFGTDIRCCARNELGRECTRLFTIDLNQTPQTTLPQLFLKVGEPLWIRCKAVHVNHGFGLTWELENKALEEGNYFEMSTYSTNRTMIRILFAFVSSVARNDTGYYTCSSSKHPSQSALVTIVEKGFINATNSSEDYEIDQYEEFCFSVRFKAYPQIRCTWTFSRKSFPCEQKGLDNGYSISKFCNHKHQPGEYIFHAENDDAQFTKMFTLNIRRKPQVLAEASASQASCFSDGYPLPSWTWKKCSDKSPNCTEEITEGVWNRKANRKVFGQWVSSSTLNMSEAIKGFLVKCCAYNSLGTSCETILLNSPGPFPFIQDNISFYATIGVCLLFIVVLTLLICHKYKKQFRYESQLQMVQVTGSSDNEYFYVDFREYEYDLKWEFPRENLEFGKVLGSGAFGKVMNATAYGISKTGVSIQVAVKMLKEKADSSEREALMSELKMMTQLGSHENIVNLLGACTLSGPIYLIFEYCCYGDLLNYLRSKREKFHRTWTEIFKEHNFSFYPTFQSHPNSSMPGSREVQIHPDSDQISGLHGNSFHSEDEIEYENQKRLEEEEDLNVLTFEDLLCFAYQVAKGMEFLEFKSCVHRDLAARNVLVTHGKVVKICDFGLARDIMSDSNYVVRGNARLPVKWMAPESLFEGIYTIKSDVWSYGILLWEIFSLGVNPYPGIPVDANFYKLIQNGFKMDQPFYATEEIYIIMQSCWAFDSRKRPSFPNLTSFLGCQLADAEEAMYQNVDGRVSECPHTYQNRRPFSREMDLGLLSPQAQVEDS
The experiment in a line: FLT3 kinase activity inhibition, Caliper mobility shift assay. Format: biochemical. The protocol: FLT3 protein kinase activity was measured using the Caliper mobility shift assay. The compound was dissolved in DMSO and diluted with a kinase buffer (50 mM HEPES, pH 7.5, 0.0015% Brij-35, 2 mM DTT), and 5 μL of a 5-fold final concentration of the compound (10% DMSO) was added to a 384-well plate. After adding 10 μL of 2.5-fold FLT3 enzyme solution, incubate for 10 minutes at room temperature, and then add 10 μL of a 2.5-fold substrate (FAM-labeled polypeptide and ATP) solution. After incubation at 28° C. for 60 minutes, the reaction was stopped by adding 25 μL of stop solution (100 mM HEPES, 0.015% Brij-35, 0.2% Coating Reagent #3, 50 mM EDTA, pH 7.5). Conversion rate data was read on a Caliper EZ Reader II (Caliper Life Sciences). The conversion rate was converted into inhibition rate data (% inhibition rate=(max−conversion rate)/(max−min)*100). Where max is the conversion of the DMSO control and min is the conversion of the enzyme-free control Curves were plotted with compound concentration and inhibition rate on the horizontal and vertical coordinates, and the curve was fitted using XLFit excel add-in version 4.3.1 software and IC50 was calculated.
`CCc1nc(C(N)=O)c(Nc2ccc3c(c2)OC[C@H]2COCCN32)nc1NC1CCOCC1` [Compound D2R]: the IC50 is under 10 nM.

Turning to `CCc1nc(C(N)=O)c(Nc2ccc3c(c2)OC[C@H]2CN(CC(F)(F)F)CCN32)nc1NC1CCOCC1` [Compound D3R], the IC50 is under 10 nM.

For `CCc1nc(C(N)=O)c(Nc2ccc3c(c2)OC[C@H]2CN(C4CC4)CCN32)nc1NC1CCOCC1` [Compound D4R], the IC50 was under 1 nM. The value for `CCc1nc(C(N)=O)c(Nc2ccc3c(c2)OC[C@@H]2COCCN32)nc1NC1CCOCC1` [Compound D2S] was under 10 nM; that for `CCc1nc(C(N)=O)c(Nc2ccc3c(c2)OC[C@@H]2CN(C)CC(=O)N32)nc1NC1CCOCC1` [Compound D5S] was under 10 nM.
